Experimental data from patent publication US5468772A, “Tripterinin compound and method” (Pharmagenesis, Inc., priority 1993, dated 1995).

Key:
Format in all cases: cell-based
HT-2 cells = assay: Inhibition of IL-2 action: IL-2 stimulated HT-2 cell proliferation
Protocol: Briefly, HT-2 cells were incubated in the presence of IL2, and in the presence of increasing concentrations of tripterinin. After 20 hours incubation, tritiated thymidine was added and the incubation carried out for an additional 4 hours. Cells were harvested and counted as described for PBL proliferation. […] Half maximal inhibition occurred at about 0.1 μg/ml.
The effect of tripterinin on the action of IL-2 was assessed by measurement of the compound's ability to inhibit IL-2 stimulated growth of the IL-2 dependent cell line HT-2, a well-established biological assay of IL-2 action (O'Gara). HT-2 cells were cultured in 75 cm^2 (Corning) tissue culture flasks in RPMI 1640 medium containing 10% fetal bovine serum (Hyclone), 50 μM 2-mercaptoethanol (Fisher), 10 U/ml recombinant human IL-2 (Cetus), 20 mM HEPES, 2 mM glutamine, 100 U/ml penicillin and 100 μg/ml streptomycin. Cells were passaged every 2 days. For experiments, HT-2 cells were centrifuged at 180×g for 10 minutes, washed twice with 10 ml of IL-2 free culture medium and resuspended in RPMI 1640 medium prepared as above, except containing 5% fetal bovine serum. Final cell concentration was 1×10^4 /well. Cultures were incubated with varying concentrations of the tripterinin (95% air/5% CO2, 37° C.) for 20 hours. […] Cells were harvested and counted as described for the PBL proliferation assay.

TNFα = TNFα production by PHA stimulated human PBLs (ELISA); conditions: 24 h
Protocol: The effect of tripterinin on the production of the cytokines IL-1b, IL2, IL-6, IFNγ, and TNFα was assessed by measurement of the concentration of these cytokines in PHA stimulated human PBL cultures. Cytokine levels were measured by standard ELISA methods using commercially available kits, as detailed in Example 6. Briefly, assay buffer was added to each of the wells of a microtiter plate containing pre-bound anti-cytokine antibody, followed by addition of standard or sample solution, diluted appropriately for the cytokine concentration measured, followed by a second reporter-labeled antibody specific against the anti-cytokine antibody. […]
Cytokine measurements were carried out using commercially available ELISA assay kits (R&D Systems), in accordance with the supplier's protocols. In brief, 100 μl of the assay buffer supplied was added to each of the wells of a microtiter plate containing pre-bound anti-cytokine antibody, followed by 100 μl of standard or sample solution, diluted appropriately for the concentration range measured. […]
Following two hours incubation, the plates were washed four times with assay buffer, and the second antibody, anti-anti-cytokine-horseradish peroxidase (HRP), was added to each well in a volume of 200 μl. […] Optical density was determined using a Molecular Devices microtiter plate reader.

human PBLs = assay: Cytotoxicity, MTT reduction, human PBLs; conditions: up to 10 μg/ml, highest tested, 24 h
Protocol: Potential cytotoxicity of tripterinin was assessed by measurement of the effect of the compound on reduction of MTT (3-[4,5-Dimethylthiazol-2-yl]-2,5-diphenyltetrazolium bromide) by cultured cells, an index of cellular respiration and a sensitive assay for the detection of cytotoxicity (Green, et al.). Toxicity was evaluated in vitro in human PBLs and in mouse thymocytes, as detailed in Example 7. Sodium azide was used as a cytotoxic control. Cytotoxicity was also assessed using the standard method of trypan blue dye staining.
Potential cytotoxicity of tripterinin was assessed by measurement of the compound's effect on the reduction of MTT (3-[4,5-Dimethylthiazol-2-yl]-2,5-diphenyltetrazolium bromide) by cultured cells. MTT, a yellow-colored compound, is reduced by mitochondrial enzymes to form a purple crystalline reduction product (formazan), providing an index of cellular respiration as well as a sensitive assay for cytotoxicity (Green, et al.).
Cytotoxicity was assessed in cultured human PBLs and mouse thymocytes. […] (to solubilize the formazan crystals, the MTT reduction product), optical density was determined at 570-650 nm in a Molecular Devices microtiter plate reader. Data are expressed as the ratio of the optical density of the tripterinin treated sample to that of untreated controls. […]

Question: What does the source list for `C[C@]12CCC[C@]3(COC1=O)[C@@H]2CC[C@@]12C[C@@H](CC[C@]13O)[C@](C)(O)C2` [tripterinin]?
Answer: fold inhibition of IL-2 induced DNA synthesis (HT-2 cells; concentration range 0 to 0.78 μg/ml): > 10 fold; fold decrease in IL-2 induced HT-2 cell proliferation (thymidine incorporation) (HT-2 cells; tripterinin 0.4 μg/ml): more than 10 fold; decrease in TNFα production (TNFα; 0.7 μg/ml tripterinin): 93%; decrease in TNFα production (TNFα; 3.13 μg/ml tripterinin): 98%; cytotoxicity (MTT reduction) (human PBLs): No significant toxicity; cytotoxicity (MTT reduction) (human PBLs; listed as Tripterinin): no significant toxicity
